Results from patent publication US20240174762A1, “METHODS, COMPOSITIONS AND USES FOR TARGETING SEMA7A IN THE DIAGNOSIS AND TREATMENT OF HEALTH CONDITIONS” (THE REGENTS OF THE UNIVERSITY OF COLORADO, A BODY CORPORATE, priority 2021, published 2024).

Test system: human MCF7 model of ER+ breast cancer
Assay: ER+ SEMA7A expressing tumors, human MCF7 model
Type: in vivo, mice
Conditions: FIG. 11
Source text: FIGS. 11A-11H represents various graphs and images of tumor analysis and treatment according to various aspects of the disclosure. (A) represents analysis for relapse free survival of breast cancer patients treated with endocrine therapy assessed for SEMA7A levels; (B) MCF7 tumor cell growth in mice treated with endocrine therapy (e.g., Fulvestrant); (C) Lung metastasis of MCF7 in mice from 11B; (D) is a representative image illustrating BCL2 expression in SEMA7A OE cells; (E) MCF7 tumor growth in mice treated with endocrine therapy and a Bcl-2 inhibitor (e.g., Venetoclax) indicated by the arrows; (F) Lung metastasis in mice from […] above; (G) illustrates clonogenic growth of MCF7 EV or SEMA7A OE cells treated with 5 μM SU6656; clonogenic data are normalized to vehicle controls; and (H) represents clonogenic growth of MCF7 EV or SEMA7A OE cells treated with a composition according to various aspects of the disclosure.
In another exemplary method, ER+SEMA7A expressing tumors are resistant to anti-estrogen-based therapy (Fulvestrant), anti-CDK4/6 therapy (Palbociclib), and chemotherapy but are sensitive to inhibition of cell survival pathways. […]

C[C@]12CC[C@@H]3c4ccc(O)cc4C[C@@H](CCCCCCCCC[S+]([O-])CCCC(F)(F)C(F)(F)F)[C@H]3[C@@H]1CC[C@@H]2O (stereo partly shown) [Fulvestrant]
response of ER+SEMA7A expressing tumors to therapy: resistant
